Measured values reported in patent EP3290412A1, “HIV-1 NUCLEOCAPSID INHIBITORS” (Università degli Studi di Siena, priority 2016, dated 2018).

How the values were obtained:
NC(11-55) = NC(11-55) (Human immunodeficiency virus type 1, UniProt P12493); assay: NC inhibition assay (NC-induced cTAR DNA destabilization, fluorescence); type: biochemical, HIV-1; conditions: single point screening; positive = >25% inhibition at 100µM
In short: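 Doubly labelled cTAR (0.1 µM, Alexa488/Dabcyl) pre-complexed with 1 µM Zn-loaded NC(11-55) for 15 min, then compound added for a further 15 min; run at 20 °C in Tris-HCl pH 7.5, 30 mM NaCl, 0.2 mM MgCl2. Fluorescence read at ex 480/em 520 nm. IC50 taken from dose-response fit of % inhibition of NC-induced fluorescence increase.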

[1] = system: HIV-1 reference strain NL4-3; assay: MonoCycle assay (TZM-bl cells); type: cell-based
In short: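 TZM-bl cells (20,000/well) were infected with NL4-3 in the presence of five-fold serial inhibitor dilutions. After 48 h, cells were lysed and luciferase luminescence (RLU) was counted. IC50 was derived from the RLU data.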

[2] = system: HIV-1 reference strain NL4-3; assay: BiCycle assay (MT-2 then TZM-bl cells); type: cell-based
In short: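 MT-2 cells were infected with NL4-3 in the presence of five-fold compound dilutions. After 72 h, the supernatant was passed to TZM-bl cells. Two days later, luciferase luminescence was read and IC50 calculated, giving a readout that spans the whole replication cycle.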

HeLa cells = assay: HeLa Proliferation assay (CellTiter Glo); type: cell-based; conditions: 72 hours
In short: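 Viability measured with CellTiter Glo after 72 h compound exposure (37 °C, 5% CO2, humidified) of HeLa cells seeded at 2000 per well in 10% FBS DMEM without phenol red and allowed 4 h recovery.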

[3] = Human immunodeficiency virus 1, NL43, TZM-bl, 48 h, read-out: Mono Cycle IC50 nM
[4] = Human immunodeficiency virus 1, NL43, TZM-bl, read-out: BiCycle IC50 nM
[5] = Human immunodeficiency virus 1, NL43, TZM-bl cells, NL4-3, 48 hours, read-out: Mono Cycle IC50
[6] = Human immunodeficiency virus 1, NL43, MT-2 cells 72 hours then TZM-bl cells two days, NL4-3, read-out: BiCycle IC50

Molecule `C[C@H](NC(=O)c1nc(-c2ccc(C(=O)OCc3ccccc3)cn2)nc(O)c1O)C1CCCCC1` [Compound 70, benzyl (S)-6-(4-((1-cyclohexylethyl)carbamoyl)-5,6-dihydroxypyrimidin-2-yl)nicotinate] has an inhibition at 100 µM (NC(11-55)) of over 25%, an IC50 [1, 3] of over 50000 nM and an IC50 [2, 4] of 190 nM. For the same molecule, the “Proliferation assay HELA TD50” value (HeLa cells) was 4.1006 µM.

Molecule `C[C@H](NC(=O)c1nc(-c2cc(C(=O)OCc3ccccc3)ccn2)nc(O)c1O)C1CCCCC1` [Compound 71, benzyl (S)-2-(4-((1-cyclohexylethyl)carbamoyl)-5,6-dihydroxypyrimidin-2-yl)isonicotinate] has an inhibition at 100 µM (NC(11-55)) of over 25%, an IC50 [1, 3] of over 50000 nM and an IC50 [2, 4] of 559 nM. For the same molecule, the “Proliferation assay HELA TD50” value (HeLa cells) was 12.825 µM.

With `C[C@H](NC(=O)c1nc(-c2cc3ccccc3cn2)nc(O)c1O)C1CCCCC1` [Compound 72, (S)-N-(1-cyclohexylethyl)-5,6-dihydroxy-2-(isoquinolin-3-yl)pyrimidine-4-carboxamide] the inhibition at 100 µM (NC(11-55)) was over 25%, the IC50 [1, 3] was 13400 nM and the IC50 [2, 4] was 382 nM. For the same molecule, the “Proliferation assay HELA TD50” value (HeLa cells) was 3.4875 µM.

`Cc1cc(-c2nc(O)c(O)c(C(=O)N[C@H](C)C3CCCCC3)n2)nc2ccccc12` [Compound 73, (R)-N-(1-cyclohexylethyl)-5,6-dihydroxy-2-(4-methylquinolin-2-yl)pyrimidine-4-carboxamide] showed an inhibition at 100 µM (NC(11-55)) of over 25%, an IC50 [1, 5] of over 50000 nM and an IC50 [2, 6] of 358 nM. The “Proliferation assay HELA TD50” value (HeLa cells) was 5.3719 µM.

Molecule `C[C@@H](NC(=O)c1nc(-c2cc(C(=O)NCc3ccccc3)ccn2)nc(O)c1O)C1CCCCC1` [Compound 74, (R)-2-(4-(benzylcarbamoyl)pyridin-2-yl)-N-(1-cyclohexylethyl)-5,6-dihydroxypyrimidine-4-carboxamide] has an inhibition at 100 µM (NC(11-55)) of over 25%, an IC50 [1, 5] of over 50000 nM and an IC50 [2, 6] of 299 nM. For the same molecule, the “Proliferation assay HELA TD50” value (HeLa cells) was 3.6728 µM.

Molecule `C[C@H](NC(=O)c1nc(-c2ccc3ccccc3n2)nc(O)c1O)C1CCCCC1` [Compound 75, (S)-N-(1-cyclohexylethyl)-5,6-dihydroxy-2-(quinolin-2-yl)pyrimidine-4-carboxamide] has an inhibition at 100 µM (NC(11-55)) of over 25%, an IC50 [1, 3] of over 50000 nM and an IC50 [2, 4] of 752 nM. The “Proliferation assay HELA TD50” value (HeLa cells) was 7.5355 µM.

Molecule `Cc1ccnc(-c2nc(O)c(O)c(C(=O)NC3(C4CCCCC4)CC3)n2)c1` [Compound 84, N-(1-cyclohexylcyclopropyl)-5,6-dihydroxy-2-(4-methylpyridin-2-yl)pyrimidine-4-carboxamide] has an inhibition at 100 µM (NC(11-55)) of over 25%, an IC50 [1, 5] of 21200 nM and an IC50 [2, 6] of 1880 nM. For the same molecule, the “Proliferation assay HELA TD50” value (HeLa cells) was 1.9245 µM.

In the case of `CC(NC(=O)c1nc(-c2nccc3ccccc23)nc(O)c1O)C1CCC(F)(F)CC1` (centres unmarked) [Compound 90, N-(1-(4,4-difluorocyclohexyl)ethyl)-5,6-dihydroxy-2-(isoquinolin-1-yl)pyrimidine-4-carboxamide], the inhibition at 100 µM (NC(11-55)) is reported as over 25%, the IC50 [1, 5] is reported as over 50000 nM and the IC50 [2, 6] is reported as 1790 nM. For the same molecule, the “Proliferation assay HELA TD50” value (HeLa cells) was 6.4522 µM.
